Laboratory results: ChEMBL document CHEMBL4431381 (Bioorg Med Chem, 2016)
Calls of active or inactive are those of the source. No cut-off for these calls is given here.

Experiments:
[1] = target: T1, Tumor necrosis factor receptor superfamily member 16 (Rattus norvegicus) (UniProt P07174); assay: Binding affinity to p75NTR in Long-Evans rat brain at 300 uCi incubated for 40 mins followed by compound wash out for 10 secs and addition of compound for 2 hrs by autoradiographic analysis; type: tissue-based; settings: tested as the 11C-labelled form
T1 sequence (whole entry): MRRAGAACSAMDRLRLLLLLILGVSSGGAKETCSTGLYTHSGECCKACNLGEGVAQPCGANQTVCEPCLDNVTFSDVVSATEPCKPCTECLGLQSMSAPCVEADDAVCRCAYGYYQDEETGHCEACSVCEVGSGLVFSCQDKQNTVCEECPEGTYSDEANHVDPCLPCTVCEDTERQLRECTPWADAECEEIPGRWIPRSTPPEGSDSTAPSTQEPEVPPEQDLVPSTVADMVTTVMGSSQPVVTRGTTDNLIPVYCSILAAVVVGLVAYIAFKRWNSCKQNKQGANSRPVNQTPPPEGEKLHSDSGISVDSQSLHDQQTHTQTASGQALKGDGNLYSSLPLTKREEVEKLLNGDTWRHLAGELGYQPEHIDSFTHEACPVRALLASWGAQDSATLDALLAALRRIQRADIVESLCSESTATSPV

[2] = target: T2, Tumor necrosis factor receptor superfamily member 16 (Mus musculus) (UniProt Q9Z0W1); assay: (§1) Activation of p75NTR in C57BL/6 mouse brain assessed as suppression of carbachol-mediated persistant firing of entorhinal cortex after 15 mins by current-clamp technique; type: tissue-based
T2 sequence (whole entry): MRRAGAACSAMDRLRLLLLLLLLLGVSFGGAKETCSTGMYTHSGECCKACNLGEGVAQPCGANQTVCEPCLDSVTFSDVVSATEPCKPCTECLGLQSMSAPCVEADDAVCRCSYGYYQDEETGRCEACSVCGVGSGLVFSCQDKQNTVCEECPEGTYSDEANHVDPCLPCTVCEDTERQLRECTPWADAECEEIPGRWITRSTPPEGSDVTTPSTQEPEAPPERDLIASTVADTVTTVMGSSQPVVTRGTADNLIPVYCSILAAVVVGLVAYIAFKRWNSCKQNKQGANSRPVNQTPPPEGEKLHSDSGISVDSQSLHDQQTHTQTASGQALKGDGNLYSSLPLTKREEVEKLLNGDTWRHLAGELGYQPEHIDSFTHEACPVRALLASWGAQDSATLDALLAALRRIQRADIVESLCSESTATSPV

[3] = target: T3, Tumor necrosis factor receptor superfamily member 16 (Mus musculus, UniProt Q9Z0W1); assay: as §1; type: tissue-based
T3 sequence (Q9Z0W1 whole entry): T2 sequence (whole entry)

Mus musculus = species: Mus musculus; assay: Effect on carbachol-mediated persistant firing of entorhinal cortex in p75NTR deficient C57BL/6 mouse brain at 10 nM after 15 mins by current-clamp technique; type: functional
[4] = Hydrophilicity, logD of the compound; type: physicochemical; settings: octanol/water
[5] = Drug uptake in Long-Evans rat bladder at 0.4 mCi, iv through bolus administration by PET analysis; type: ADME, organism-based, Urinary bladder; settings: in vivo
[6] = Drug uptake in Long-Evans rat brain at 0.4 mCi, iv through bolus administration by PET analysis; type: ADME, organism-based; settings: in vivo
[7] = Drug uptake in C57BL/6 mouse brain incubated for 40 mins followed by compound wash out for 10 secs and addition of compound for 30 to 60 mins by autoradiographic analysis; type: ADME, tissue-based
[8] = Drug uptake in C57BL/6 mouse DRG neurons incubated for 40 mins measured after 30 to 60 mins by autoradiographic analysis; type: ADME, cell-based; settings: drg neuron
[9] = Drug uptake in C57BL/6 mouse DRG neurons incubated for 40 mins followed by compound wash out for 10 secs and addition of compound for 30 to 60 mins by autoradiographic analysis; type: ADME, cell-based; settings: drg neuron
[10] = Drug uptake in C57BL/6 mouse brain incubated for 40 mins followed by compound wash out for 10 secs and addition of compound for 30 to 60 mins in presence of 400 uM LM11A-24 by autoradiographic analysis; type: ADME, tissue-based
[11] = Drug uptake in C57BL/6 mouse brain incubated for 40 mins followed by compound wash out for 10 secs and addition of compound for 30 to 60 mins in presence of 10 uM LM11A-24 by autoradiographic analysis; type: ADME, tissue-based

| logD [4] | Drug uptake [5] | Drug uptake [6] | Drug uptake [7] | Drug uptake [8] | Drug uptake [9] | Drug uptake [10] | Drug uptake [11] | SMILES | Activity [1] | Activity [2] | EC50 [3] [nM] | Activity (Mus musculus) |
| --- | --- | --- | --- | --- | --- | --- | --- | --- | --- | --- | --- | --- |
| -3 |  |  |  |  |  |  |  | CN(C)CCCNC(=O)Cn1cnc2c1c(=O)n(C)c(=O)n2C | inactive | Dose-dependent effect | < 10 | inactive |
|  | Active | Not Active | Active | Not Active | Not Active | Active | Active | CN([11CH3])CCCNC(=O)Cn1cnc2c1c(=O)n(C)c(=O)n2C |  |  |  |  |
